Source: PubChem BioAssay (NCI)
Values joined by “and” are separate entries in the source; they are usually repeats but may differ in a detail not shown here. Equal values may be shown once.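 Cells were grown in 96-well plates and exposed to each compound for 48 hours at five concentrations; endpoints were interpolated linearly between bracketing concentrations, or set to the highest concentration if not reached. GI50 marks 50% less growth. At the TGI there is no net growth.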

tested on: MDA-MB-468 breast; test: NCI-60 cell line screen, 48 h

SMILES | GI50 | TGI
C=C1C(=O)O[C@@H]2C[C@@H](C)/C=C\C(=O)[C@](C)(OC(C)=O)C[C@H](OC(=O)/C(C)=C\C)[C@@H]12 | 1.01 µM | 5.08 µM
COc1cc2c(cc1OC)C(CCc1ccc(Cl)cc1)N(C)CC2 (centres undefined) | 16.3 µM | 38.1 µM
CC(C)=CC/C=C(/C)[C@H]1CC[C@]2(C)[C@@H]1CC[C@@H]1[C@@]3(C)CCC(=O)NC(C)(C)[C@@H]3CC[C@]12C | 16.5 µM | 34.2 µM
c1cncc(CNc2ccccc2-c2nnc(Nc3ccc4c(c3)OCO4)o2)c1 | 0.153 µM | > 100 µM
N/C(=N\O)c1ncc(-c2ccc(C(F)(F)F)cc2)c(NC2CCCCCC2)n1 | 8.27 µM and 3.63 µM | 17.9 µM
O=C1C2=C(C(=O)c3c(O)ccc(O)c31)N(c1ccc(N3CCOCC3)nc1)Cc1ccccc1O2 | 0.217 µM | 0.516 µM
O=C1NC(=NCc2cccs2)SC1Cc1ccc2ncccc2c1 (centres undefined) | 11.8 µM | > 25 µM
Fc1ccc(-c2nc(-c3nc4ccc(Cl)cc4[nH]3)cc3c2[nH]c2ccccc23)cc1 | 2.43 µM | 11.5 µM
C=CCN1C(=O)/C(=c2\sc3n(c2=O)C2C(NN=3)N(CC)C(=O)N2CC)c2ccccc21 (centres undefined) | 0.293 µM | 3.75 µM
COc1ccc(CN2c3ccccc3Sc3ccccc32)cc1F | 0.309 µM | 53.4 µM
Cn1cc(-c2csc(-c3c[nH]c4ncccc34)n2)c2cc(Br)cnc21 | 0.812 µM | 56.7 µM
O=C(N[C@H](c1ccc(Cl)c(Cl)c1)C1CNC1)c1ccc2cnccc2c1 | 1.85 µM | 10.4 µM
CCc1nn2c(C)cc(C)nc2c1Cc1ccc(/C=C/CN2CCN(CCOCCOCCN3CCN(C/C=C/c4ccc(Cc5c(CC)nn6c(C)cc(C)nc56)cc4)CC3)CC2)cc1 | 1.79 µM | 3.81 µM
O=C(Nc1cccc(Cl)c1)Nc1cccc(Cl)c1 | 0.0456 µM | 43.6 µM
C=C1CC[C@@H]2C(C)(C)[C@@H](O)CC[C@@]2(C)[C@@H]1COc1ccc2ccc(=O)oc2c1 | 6.36 µM | 25.9 µM
CC/C(=N\Nc1nc2ccccc2n1C)c1ccccn1 | 0.0284 µM | 0.207 µM
O=C(CCCn1c2c(sc3ncccc32)c(=O)n2nnc(-c3ccccc3)c12)NCCc1cnc[nH]1 | 8.06 µM | 27.4 µM
CCN1CCN(CCOc2ccc(CNc3ccc4nc(CCC5CCCCC5)[nH]c4c3)cc2)CC1 | 1.67 µM | 4.11 µM
N#Cc1ccc(Oc2nccc(-c3c(-c4ccc(F)cc4)ncn3C3CCNCC3)n2)cc1 | 5.91 µM | > 25 µM

SMILES | GI50 | TGI
CCCc1cc(=O)oc2c(C(=O)CC(C)C)c(O)c(CC=C(C)C)c(O)c12 | 3.72 µM | 27 µM
COc1cc(/C=C/C(=O)C(=Cc2ccc(F)c(F)c2)C(=O)/C=C/c2ccc(O)c(OC)c2)ccc1O | 1.7 µM | 3.47 µM
CCCCCCN(CCCCCC)CCCNc1nccc2ccccc12 | 1.34 µM | 2.91 µM
Nc1nc(N)c2cc(CNc3ccc(Cl)c(Cl)c3)ccc2n1 | 0.903 µM | 2.19 µM
COc1cc(CNC(=O)/C=C/C=C/c2ccc3c(c2)OCO3)ccc1OCc1cn(-c2ccc(Cl)c(Cl)c2)nn1 | 0.788 µM | 2.46 µM
CSc1ccc2c(c1)c(CCN)c(C)n2Cc1ccc(Cl)c(Cl)c1 | 1.78 µM | 3.47 µM
Cc1cccc(CN(C)c2ccc(CO)c(Cl)c2)c1 | 0.0572 µM | 0.176 µM
O=S(=O)(NCCNc1nccc(-c2c(-c3cccc(O)c3)nc3sccn23)n1)c1ccc(F)cc1 | 2.62 µM | 24.2 µM
CN(C)CC(C(=O)c1ccccc1)c1ccccc1 (centres undefined) | 0.95 µM | 2.63 µM
O=C1NC(=NCC(CO)c2ccccc2)S/C1=C\c1ccc2ncccc2c1 (centres undefined) | 8.8 µM | > 25 µM
CCNC(=O)Oc1ccc(/C(=C(/C)c2ccccc2)c2ccc(OCCN3CCCCCC3)cc2)cc1 | 2.06 µM | 5.63 µM
O=C1Cc2cc(CCn3ccnc3)c(Cl)cc2N1 | 2.74 µM | 11.3 µM
COC(=O)[C@]12CC[C@@H](C)[C@H](C)[C@@H]1C1=CC[C@@H]3[C@@]4(C)C[C@@H](OC(=O)c5ccco5)[C@H](O)[C@@](C)(CO)[C@@H]4[C@H](O)C[C@@]3(C)[C@]1(C)CC2 | 2.34 µM | 6.54 µM
Cc1ccc(/C=C(\C#N)n2nnc3cc(Cl)c(Cl)cc32)cc1 | 2.4 µM | 6.65 µM
CCN1CCC[C@H]1c1cc(O)c2c(c1OC)C[C@H]1C[C@H]3[C@H](N)C(=O)C(C(N)=O)=C(O)[C@@]3(O)C(=O)C1=C2O | 0.0446 µM | 0.717 µM
CCOc1ccc(Cc2nccc3cc(OCC)c(OCC)cc23)cc1OCC | 2.29 µM | 18.3 µM
Oc1nc(NCCc2ccccc2)sc1/C=C1\C=Nc2ncccc21 | 1.51 µM and 2.05 µM | 3.6 µM and 6.37 µM
CCCNc1nc(N(C)O)nc(N(C)O)n1 | 2.75 µM | > 70.7 µM
